# Reference: publication PMC4576851 (Organic & biomolecular chemistry, 2015)
# Molecular target: p97 (valosin containing protein, VCP, cdc48) (Homo sapiens, UniProt P55072)
# Test: p97 ATPase inhibition assay
# Assay type: biochemical
# Chain of p97 (valosin containing protein, VCP, cdc48) (P55072 2-806): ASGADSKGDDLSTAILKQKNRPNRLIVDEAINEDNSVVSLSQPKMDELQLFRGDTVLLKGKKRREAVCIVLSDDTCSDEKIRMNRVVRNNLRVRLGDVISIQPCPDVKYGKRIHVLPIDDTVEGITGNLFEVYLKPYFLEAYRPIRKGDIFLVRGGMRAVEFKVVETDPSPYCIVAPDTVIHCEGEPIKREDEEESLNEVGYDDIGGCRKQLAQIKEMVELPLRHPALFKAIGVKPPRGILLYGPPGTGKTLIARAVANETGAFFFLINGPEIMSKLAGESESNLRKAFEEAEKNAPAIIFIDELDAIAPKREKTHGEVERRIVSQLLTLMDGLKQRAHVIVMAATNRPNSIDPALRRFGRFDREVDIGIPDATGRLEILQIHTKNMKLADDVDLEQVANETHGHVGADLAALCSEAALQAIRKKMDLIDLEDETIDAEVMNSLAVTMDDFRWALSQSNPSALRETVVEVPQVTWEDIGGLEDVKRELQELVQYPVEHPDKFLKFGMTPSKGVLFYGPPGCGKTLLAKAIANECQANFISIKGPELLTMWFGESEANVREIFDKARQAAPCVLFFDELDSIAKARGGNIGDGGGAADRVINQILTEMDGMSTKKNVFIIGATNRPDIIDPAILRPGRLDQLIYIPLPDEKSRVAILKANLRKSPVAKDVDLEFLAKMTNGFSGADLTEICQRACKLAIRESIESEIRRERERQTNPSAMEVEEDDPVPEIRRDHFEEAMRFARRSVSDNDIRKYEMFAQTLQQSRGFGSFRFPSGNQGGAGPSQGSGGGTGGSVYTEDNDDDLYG
smiles,measurement,value
"C=C1OC(=O)C2(C1=O)[C@H](/C=C/C=C/CCC)C=C[C@@H](O)[C@@H]2O (stereo partly shown) [compound 2, oxaspirol B]",IC50,31.2 ± 3 µM
